# Read-outs that look alike come from different tables or passages of the source.
# Tests used:
# [1] = rcm bond, Hoveyda-Grubbs 2nd generation catalyst
# [2] = system: HCV replicon 1a (human hepatoma Huh-7 cell line harboring a HCV replicon); assay: microbe, parasite or virus in culture; assay type: cell-based; settings: for inhibition at 1 µM: Hepatitis C virus, Huh-7, 72 h, read-out: Replicon 1a % inhibition at 1 μm
smiles,measurement,setting,value
CC(C)[C@@H]1NC(=O)CC=Cc2cc3cc(ccc3cn2)[C@@H](C)OC(=O)[C@@H]2CCCN(N2)C(=O)[C@H](C)NC1=O,"ring closure, yield of all isomers","[1]; from C=Cc1cc2cc([C@@H](C)OC(=O)[C@@H]3CCCN(C(=O)[C@H](C)NC(=O)[C@@H](NC(=O)C/C=C/C)C(C)C)N3)ccc2cn1, toluene, 3.33 mM, 110.0 °C, 1.0 h",23.5%
C[C@@H]1NC(=O)[C@H](CCc2ccccc2)NC(=O)CC=Cc2cc3cc(ccc3cn2)[C@@H](C)OC(=O)[C@@H]2CCCN(N2)C1=O,"ring closure, yield of all isomers","[1]; from C=Cc1cc2cc([C@@H](C)OC(=O)[C@@H]3CCCN(C(=O)[C@H](C)NC(=O)[C@H](CCc4ccccc4)NC(=O)C/C=C/C)N3)ccc2cn1, chlorobenzene, 4.81 mM, 110.0 °C, 3.5 h",12%
C[C@@H]1NC(=O)[C@H](C2CCCCC2)NC(=O)CC=Cc2cc3cc(ccc3cn2)[C@@H](C)OC(=O)[C@@H]2CCCN(N2)C1=O,"ring closure, yield of all isomers","[1]; from C=Cc1cc2cc([C@@H](C)OC(=O)[C@@H]3CCCN(C(=O)[C@H](C)NC(=O)[C@@H](NC(=O)C/C=C/C)C4CCCCC4)N3)ccc2cn1, toluene, 5.0 mM, 110.0 °C, 2.0 h",7%
CC(C)[C@@H]1NC(=O)CC=Cc2cc3cc(ccc3cn2)[C@@H](C(F)(F)F)NC(=O)[C@@H]2CCCN(N2)C(=O)[C@H](C)NC1=O,"ring closure, yield of all isomers","[1]; from C=CCC(=O)N[C@H](C(=O)N[C@@H](C)C(=O)N1CCC[C@@H](C(=O)N[C@@H](c2ccc3cnc(C=C)cc3c2)C(F)(F)F)N1)C(C)C, toluene, 3.04 mM, 120.0 °C, 2.83 h",3%
CC(C)[C@@H]1NC(=O)CC=Cc2cc3cc(ccc3cn2)[C@@H](C)NC(=O)[C@@H]2CCCN(N2)C(=O)[C@H](C)NC1=O,"ring closure, yield of all isomers","[1]; from C=CCC(=O)N[C@H](C(=O)N[C@@H](C)C(=O)N1CCC[C@@H](C(=O)N[C@H](C)c2ccc3cnc(C=C)cc3c2)N1)C(C)C, toluene, 3.86 mM, 111.0 °C, 3.0 h",2.2%
CO[C@@H]1C=Cc2cc3cc(ccc3cn2)[C@@H](C)NC(=O)[C@@H]2CCCN(N2)C(=O)[C@H](C)NC(=O)[C@H](C(C)C)NC(=O)[C@@H]1C,"ring closure, yield of all isomers","[1]; from C=Cc1cc2cc([C@@H](C)NC(=O)[C@@H]3CCCN(C(=O)[C@H](C)NC(=O)[C@@H](NC(=O)[C@H](C)[C@@H](/C=C/C)OC)C(C)C)N3)ccc2cn1, toluene, 3.33 mM, 110.0 °C, 8.0 h",26%
CC(C)[C@@H]1NC(=O)[C@H](C)CC=CCOc2ccc(F)c(c2)[C@@H](C)OC(=O)[C@@H]2CCCN(N2)C(=O)[C@H](C)NC1=O,"ring closure, yield of all isomers","[1]; from C=CCOc1ccc(F)c([C@@H](C)OC(=O)[C@@H]2CCCN(C(=O)[C@H](C)NC(=O)[C@@H](NC(=O)[C@H](C)CC=C)C(C)C)N2)c1, 1,2-dichloroethane, 3.0 mM, 83.0 °C, 2.0 h",20%
CC[C@@H]1C=Cc2cc3cc(ccc3cn2)[C@@H](C)OC(=O)[C@@H]2CCCN(N2)C(=O)[C@H](C)NC(=O)[C@H](C(C)C)NC1=O,"ring closure, yield of all isomers","[1]; from C=Cc1cc2cc([C@@H](C)OC(=O)[C@@H]3CCCN(C(=O)[C@H](C)NC(=O)[C@@H](NC(=O)[C@@H](/C=C/C)CC)C(C)C)N3)ccc2cn1, toluene, 3.0 mM, 120.0 °C, 4.0 h",1%
CC(C)[C@@H]1NC(=O)C(C)(C)c2cccc(c2)-c2cc3cc(ccc3cn2)[C@@H](C)OC(=O)[C@@H]2CCCN(N2)C(=O)[C@H](C)NC1=O [Compound 67],inhibition at 1 µM,[2],97%
CO[C@@H]1CCC=Cc2ccc3c(c2)[C@@H](CC3)N(C)C(=O)[C@@H]2CCCN(N2)C(=O)[C@H](C)NC(=O)[C@H](C(C)C)NC(=O)[C@@H]1C,"ring closure, yield of all isomers","[1]; from C=CCC[C@@H](OC)[C@@H](C)C(=O)N[C@H](C(=O)N[C@@H](C)C(=O)N1CCC[C@@H](C(=O)N(C)[C@@H]2CCc3ccc(C=C)cc32)N1)C(C)C, 1,2-dichloroethane, 3.9 mM, 83.0 °C, 1.5 h",5%
CC(C)[C@@H]1NC(=O)CCCC=Cc2cc3cc(ccc3cn2)[C@@H](C)OC(=O)[C@@H]2CCCN(N2)C(=O)[C@H](C)NC1=O,"ring closure, yield of all isomers","[1]; from C=CCCCC(=O)N[C@H](C(=O)N[C@@H](C)C(=O)N1CCC[C@@H](C(=O)O[C@H](C)c2ccc3cnc(C=C)cc3c2)N1)C(C)C, toluene, 2.41 mM, 111.0 °C, 0.5 h",63%
C[C@@H]1NC(=O)[C@H](CCn2cc(CO)nn2)NC(=O)C(C)(C)/C=C/c2cc3cc(ccc3cn2)[C@@H](C)OC(=O)[C@@H]2CCCN(N2)C1=O [Compound 72],Replicon 1a % inhibition at 1 μm,[2],0%
C[C@@H]1NC(=O)[C@H]([C@@H](C)O[Si](C)(C)C(C)(C)C)NC(=O)CC=Cc2cc3cc(ccc3cn2)[C@@H](C)OC(=O)[C@@H]2CCCN(N2)C1=O,"ring closure, yield of all isomers","[1]; from C=Cc1cc2cc([C@@H](C)OC(=O)[C@@H]3CCCN(C(=O)[C@H](C)NC(=O)[C@@H](NC(=O)C/C=C/C)[C@@H](C)O[Si](C)(C)C(C)(C)C)N3)ccc2cn1, toluene, 2.94 mM, 105.0 °C, 1.0 h",42%
CC(C)[C@@H]1NC(=O)[C@H](C)/C=C/c2ccc3ccc(nc3c2)[C@@H](C)OC(=O)[C@@H]2CCCN(N2)C(=O)[C@H](C)NC1=O [Example 26],Replicon 1a % inhibition at 1 μm,[2],99%
CC(C)[C@@H]1NC(=O)C(C)(C)/C=C/c2ccc3ccc(nc3c2)[C@@H](C(F)(F)F)NC(=O)[C@@H]2CCCN(N2)C(=O)[C@H](C)NC1=O [Example 13],Replicon 1a % inhibition at 1 μm,[2],87%
CO[C@@H]1C=Cc2cc3cc(ccc3cn2)[C@@H](C)OC(=O)C2(C)CCCN(N2)C(=O)[C@H](C)NC(=O)[C@H](C(C)C)NC(=O)[C@@H]1C (stereo partly shown),"ring closure, yield of all isomers","[1]; from C=Cc1cc2cc([C@@H](C)OC(=O)C3(C)CCCN(C(=O)[C@H](C)NC(=O)[C@@H](NC(=O)[C@H](C)[C@@H](/C=C/C)OC)C(C)C)N3)ccc2cn1, toluene, 3.06 mM, 111.0 °C, 3.5 h",21%
CC(C)[C@@H]1NC(=O)CCC(C)(C)CC=Cc2cccc(c2)[C@@H](C)NC(=O)[C@@H]2CCCN(N2)C(=O)[C@H](C)NC1=O,"ring closure, yield of all isomers","[1]; from C=CCC(C)(C)CCC(=O)N[C@H](C(=O)N[C@@H](C)C(=O)N1CCC[C@@H](C(=O)N[C@H](C)c2cccc(C=C)c2)N1)C(C)C, 1,2-dichloroethane, 3.38 mM, 80.0 °C, 1.0 h",8%
CC(C)[C@@H]1NC(=O)[C@H](C)CC=Cc2cc3cc(ccc3cn2)[C@@H](C)OC(=O)[C@@H]2CCCN(N2)C(=O)[C@H](C)NC1=O,"ring closure, yield of all isomers","[1]; from C=CC[C@@H](C)C(=O)N[C@H](C(=O)N[C@@H](C)C(=O)N1CCC[C@@H](C(=O)O[C@H](C)c2ccc3cnc(C=C)cc3c2)N1)C(C)C, toluene, 3.0 mM, 120.0 °C, 3.0 h",22%
C[C@@H]1NC(=O)[C@H](CO[Si](C)(C)C(C)(C)C)NC(=O)CC=Cc2cc3cc(ccc3cn2)[C@@H](C)OC(=O)[C@@H]2CCCN(N2)C1=O,"ring closure, yield of all isomers","[1]; from C=Cc1cc2cc([C@@H](C)OC(=O)[C@@H]3CCCN(C(=O)[C@H](C)NC(=O)[C@H](CO[Si](C)(C)C(C)(C)C)NC(=O)C/C=C/C)N3)ccc2cn1, toluene, 2.98 mM, 105.0 °C, 0.58 h",38%
C[C@@H]1NC(=O)[C@H](Cc2ccccc2)NC(=O)CC=Cc2cc3cc(ccc3cn2)[C@@H](C)OC(=O)[C@@H]2CCCN(N2)C1=O,"ring closure, yield of all isomers","[1]; from C=Cc1cc2cc([C@@H](C)OC(=O)[C@@H]3CCCN(C(=O)[C@H](C)NC(=O)[C@H](Cc4ccccc4)NC(=O)C/C=C/C)N3)ccc2cn1, chlorobenzene, 4.96 mM, 110.0 °C, 3.0 h",12%
CC1C=Cc2cc3cc(ccc3cn2)[C@@H](C)OC(=O)[C@@H]2CCCN(N2)C(=O)[C@H](C)NC(=O)[C@H](C(C)C)NC1=O (stereo partly shown),"ring closure, yield of all isomers","[1]; from C=Cc1cc2cc([C@@H](C)OC(=O)[C@@H]3CCCN(C(=O)[C@H](C)NC(=O)[C@@H](NC(=O)C(C)C=C)C(C)C)N3)ccc2cn1, toluene, 2.6 mM, 111.0 °C, 3.0 h",1%
CC(C)[C@@H]1NC(=O)[C@H](C)C/C=C/COc2ccc(F)c(c2)[C@@H](C)OC(=O)[C@@H]2CCCN(N2)C(=O)[C@H](C)NC1=O [Example 35],inhibition at 1 µM,[2],94%
C[C@@H]1NC(=O)[C@H](CCn2ccnn2)NC(=O)C(C)(C)/C=C/c2cc3cc(ccc3cn2)[C@@H](C)OC(=O)[C@@H]2CCCN(N2)C1=O [Example 50],Replicon 1a % inhibition at 1 μm,[2],12%
CO[C@@H]1CCC=Cc2cccc(c2)C2CCCCN2C(=O)[C@@H]2CCCN(N2)C(=O)[C@H](C)NC(=O)[C@H](C(C)C)NC(=O)[C@@H]1C (stereo partly shown),"ring closure, yield of all isomers","[1]; from C=CCC[C@@H](OC)[C@@H](C)C(=O)N[C@H](C(=O)N[C@@H](C)C(=O)N1CCC[C@@H](C(=O)N2CCCCC2c2cccc(C=C)c2)N1)C(C)C, 1,2-dichloroethane, 3.05 mM, 84.0 °C, 2.5 h",18%
CC(C)[C@@H]1NC(=O)CC=Cc2ccc3ccc(cc3n2)[C@@H](C)OC(=O)[C@@H]2CCCN(N2)C(=O)[C@H](C)NC1=O,"ring closure, yield of all isomers","[1]; from C=CCC(=O)N[C@H](C(=O)N[C@@H](C)C(=O)N1CCC[C@@H](C(=O)O[C@H](C)c2ccc3ccc(C=C)nc3c2)N1)C(C)C, 1,2-dichloroethane, 18.2 mM, 100.0 °C, 1.0 h",3%
CC(C)[C@@H]1NC(=O)CCCCC=Cc2cc3cc(ccc3cn2)[C@@H](C)OC(=O)[C@@H]2CCCN(N2)C(=O)[C@H](C)NC1=O,"ring closure, yield of all isomers","[1]; from C=CCCCCC(=O)N[C@H](C(=O)N[C@@H](C)C(=O)N1CCC[C@@H](C(=O)O[C@H](C)c2ccc3cnc(C=C)cc3c2)N1)C(C)C, toluene, 2.16 mM, 111.0 °C, 0.5 h",31%
CC(C)[C@@H]1NC(=O)[C@H](C)[C@H](O[Si](C)(C)C(C)(C)C)CCC=Cc2cccc(c2)[C@@H](C)NC(=O)[C@@H]2CCCN(N2)C(=O)[C@H](C)NC1=O,"ring closure, yield of all isomers","[1]; from C=CCC[C@@H](O[Si](C)(C)C(C)(C)C)[C@@H](C)C(=O)N[C@H](C(=O)N[C@@H](C)C(=O)N1CCC[C@@H](C(=O)N[C@H](C)c2cccc(C=C)c2)N1)C(C)C, 1,2-dichloroethane, 2.8 mM, 80.0 °C, 1.0 h",43%
"CO[C@@H]1/C=C/COc2cccc(c2)[C@@H](C(C)C)NC(=O)[C@@H]2CCCN(N2)C(=O)[C@H](C)NC(=O)[C@H](C(C)C)NC(=O)[C@@H]1C [Example 37, (E)-(2R,5S,11S,14S,17R,18R)-2,14-Diisopropyl-18-methoxy-11,17-di methyl-22-oxa-3,9,12,15,28-pentaaza-tricyclo[21.3.1.1*5,9]octacosa-1(27),19,23,25-tetraene-4,10,13,16-tetraone]",Replicon 1a % inhibition at 1 μm,[2],76%

# From patent US10246486B2, “Macrocyclic inhibitors of flaviviridae viruses” (Gilead Sciences, Inc., priority 2012, dated 2019)
